In patent US10092584B2 (Achillion Pharmaceuticals, Inc., priority 2015, dated 2018):
Structures can show the parent of a compound that is named as a salt.

Target: T1, Human Factor D (Homo sapiens, UniProt P00746)
T1 construct: purified from human serum; purchased Complement Technology, Inc; host or cells: human serum
Experiment: Human Factor D assay (Example 8)
Format: biochemical
Conditions: Table 3; Human Factor D 80 nM, substrate Z-L-Lys-SBzl; read-out: IC50 (Stars)
Method in brief: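 IC50 values derive from nonlinear regression of Factor D reaction rates against compound concentration. The enzyme, purified from human serum, is used at 80 nM final with a 5 min room-temperature compound preincubation in 50 mM Tris, 1M NaCl, pH 7.5, before 100 μM Z-L-Lys-SBzl plus 100 μM DTNB are added.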

T1 sequence (P00746 26-253): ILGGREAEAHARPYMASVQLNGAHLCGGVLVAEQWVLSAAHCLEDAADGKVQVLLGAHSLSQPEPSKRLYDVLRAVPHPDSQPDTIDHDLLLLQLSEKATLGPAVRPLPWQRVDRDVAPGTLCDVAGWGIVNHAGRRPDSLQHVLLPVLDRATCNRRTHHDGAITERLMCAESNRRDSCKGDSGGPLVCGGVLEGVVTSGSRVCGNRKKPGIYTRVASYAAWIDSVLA

Structure (SMILES) | IC50 [µM]
CC(=O)c1cc(CC(=O)N2C[C@H](F)C[C@H]2C(=O)Nc2cccc(-c3ccccc3Cl)c2F)n2ccccc12 [Compound 312, (2S,4R)-1-(2-(1-Acetylindolizin-3-yl)acetyl)-N-(2′-chloro-2-fluorobiphenyl-3-yl)-4-fluoropyrrolidine-2-carboxamide] | < 1
NC(=O)c1ccc(Cl)c(-c2cccc(NC(=O)[C@@H]3C[C@@H](F)CN3C(=O)Cn3nc(C(N)=O)c4ccccc43)c2F)c1 [Compound 315, 1-(2-((2S,4R)-2-((5′-carbamoyl-2′-chloro-2-fluoro-[1,1′-biphenyl]-3-yl)carbamoyl)-4-fluoropyrrolidin-1-yl)-2-oxoethyl)-1H-indazole-3-carboxamide] | < 1
NC(=O)c1nn(CC(=O)N2C[C@H](F)C[C@H]2C(=O)Nc2cccc(-c3cc(F)c(F)cc3Cl)c2F)c2ccc(Br)cc12 [Compound 319, 5-bromo-1-(2-((2S,4R)-2-((2′-chloro-2,4′,5′-trifluoro-[1,1′-biphenyl]-3-yl)carbamoyl)-4-fluoropyrrolidin-1-yl)-2-oxoethyl)-1H-indazole-3-carboxamide] | < 1
CC(=O)c1cn(CC(=O)N2C[C@H](F)C[C@H]2C(=O)Nc2cccc(-c3ccccc3Cl)c2F)c2cc(F)ccc12 [Compound 325, (2S,4R)-1-(2-(3-acetyl-6-fluoro-1H-indol-1-yl)acetyl)-N-(2′-chloro-2-fluoro-[1,1′-biphenyl]-3-yl)-4-fluoropyrrolidine-2-carboxamide] | < 1
NC(=O)c1nn(CC(=O)N2C[C@H](F)C[C@H]2C(=O)Nc2cccc(-c3ccccc3Cl)c2F)c2cc(C(=O)O)sc12 [Compound 326, 3-carbamoyl-1-(2-((2S,4R)-2-((2′-chloro-2-fluoro-[1,1′-biphenyl]-3-yl)carbamoyl)-4-fluoropyrrolidin-1-yl)-2-oxoethyl)-1H-thieno[3,2-c]pyrazole-5-carboxylic acid] | < 1
NC(=O)c1nn(CC(=O)N2CCC[C@H]2C(=O)Nc2cccc(-c3ccccc3Cl)c2F)c2ccccc12 [Compound 337, (S)-1-(2-(2-((2′-chloro-2-fluoro-[1,1′-biphenyl]-3-yl)carbamoyl)pyrrolidin-1-yl)-2-oxoethyl)-1H-indazole-3-carboxamide] | < 1
COC(=O)c1cccc(NC(=O)[C@@H]2C[C@@H](F)CN2C(=O)Cn2nc(C(N)=O)c3ccccc32)c1F [Compound 345, methyl 3-((2S,4R)-1-(2-(3-carbamoyl-1H-indazol-1-yl)acetyl)-4-fluoropyrrolidine-2-carboxamido)-2-fluorobenzoate] | < 1
Cc1sc(Cl)cc1NC(=O)[C@@H]1C[C@@H](F)CN1C(=O)Cn1nc(C(N)=O)c2ccncc21 [Compound 351] | 1 to 10
NC(=O)c1nn(CC(=O)N2CC(F)(F)C[C@H]2C(=O)Nc2cccc(-c3ccccc3Cl)c2F)c2ccccc12 [Compound 353, (S)-1-(2-(2-((2′-chloro-2-fluoro-[1,1′-biphenyl]-3-yl)carbamoyl)-4,4-difluoropyrrolidin-1-yl)-2-oxoethyl)-1H-indazole-3-carboxamide] | < 1
NC(=O)c1nn(CC(=O)N2C[C@@H](O)C[C@H]2C(=O)Nc2cccc(-c3ccccc3Cl)c2F)c2ccccc12 [Compound 354, 1-(2-((2S,4S)-2-((2′-chloro-2-fluoro-[1,1′-biphenyl]-3-yl)carbamoyl)-4-hydroxypyrrolidin-1-yl)-2-oxoethyl)-1H-indazole-3-carboxamide] | < 1
NC(=O)c1nn(CC(=O)N2CC[C@@H](N)[C@H]2C(=O)Nc2cccc(-c3ccccc3Cl)c2F)c2ccccc12 [Compound 356, 1-(2-((2S,3R)-3-amino-2-((2′-chloro-2-fluoro-[1,1′-biphenyl]-3-yl)carbamoyl)pyrrolidin-1-yl)-2-oxoethyl)-1H-indazole-3-carboxamide] | < 1
NC(=O)c1nc(CC(=O)N2C[C@H](F)C[C@H]2C(=O)Nc2cccc(-c3ccccc3Cl)c2F)n2ccccc12 [Compound 373, 3-(2-((2S,4R)-2-((2′-Chloro-2-fluoro-[1,1′-biphenyl]-3-yl)carbamoyl)-4-fluoropyrrolidin-1-yl)-2-oxoethyl)imidazo[1,5-a]pyridine-1-carboxamide] | < 1
NC(=O)c1cn(CC(=O)N2CCS[C@H]2C(=O)Nc2cccc(-c3ccccc3Cl)c2F)c2ccccc12 [Compound 375, (S)-3-(2-(3-carbamoyl-1H-indol-1-yl)acetyl)-N-(2′-chloro-2-fluoro-[1,1′-biphenyl]-3-yl)thiazolidine-2-carboxamide] | < 1
CC(=O)c1cn(CC(=O)N2C[C@H](F)C[C@H]2C(=O)NCc2cccc(Cl)c2F)c2cc(C(=N)N)ccc12 [Compound 382, (2S,4R)-1-(2-(3-Acetyl-6-carbamimidoyl-1H-indol-1-yl)acetyl)-N-(3-chloro-2-fluorobenzyl)-4-fluoropyrrolidine-2-carboxamide TFA] | < 1
Cc1nc2c(s1)c(C(N)=O)nn2CC(=O)N1C[C@H](F)C[C@H]1C(=O)Nc1cccc(-c2ccccc2Cl)c1F [Compound 383, 1-(2-((2S,4R)-2-(2′-Chloro-2-fluorobiphenyl-3-ylcarbamoyl)-4-fluoropyrrolidin-1-yl)-2-oxoethyl)-5-methyl-1H-pyrazolo[3,4-d]thiazole-3-carboxamide] | < 1
COC(=O)/C=C/c1cccc(NC(=O)[C@@H]2C[C@@H](F)CN2C(=O)Cn2nc(C(N)=O)c3ccccc32)c1F [Compound 389, (E)-methyl 3-(3-((2S,4R)-1-(2-(3-carbamoyl-1H-indazol-1-yl)acetyl)-4-fluoropyrrolidine-2-carboxamido)-2-fluorophenyl) acrylate] | 1 to 10

The next lines start with the values.

IC50 [µM] | Structure (SMILES)
< 1 | NC(=O)c1nn(CC(=O)N2C[C@H](F)[C@@H](O)[C@H]2C(=O)Nc2cccc(-c3ccccc3Cl)c2F)c2ccccc12 [Compound 279, 1-(2-((2S,3S,4S)-2-(2′-Chloro-2-fluorobiphenyl-3-ylcarbamoyl)-4-fluoro-3-hydroxypyrrolidin-1-yl)-2-oxoethyl)-1H-indazole-3-carboxamide]
< 1 | CO[C@H]1[C@@H](C(=O)Nc2cccc(-c3ccccc3Cl)c2F)N(C(=O)Cn2nc(C(N)=O)c3ccccc32)C[C@@H]1F [Compound 289, 1-(2-((2S,3S,4S)-2-(2′-Chloro-2-fluorobiphenyl-3-ylcarbamoyl)-4-fluoro-3-methoxypyrrolidin-1-yl)-2-oxoethyl)-1H-indazole-3-carboxamide]
< 1 | CC(=O)c1cc(CC(=O)N2C[C@H](F)C[C@H]2C(=O)Nc2cccc(Br)n2)n2ccccc12 [Compound 314, (2S,4R)-1-(2-(1-Acetylindolizin-3-yl)acetyl)-N-(6-bromopyridin-2-yl)-4-fluoropyrrolidine-2-carboxamide]
< 1 | CC(=O)c1nn(CC(=O)N2C[C@H](F)C[C@H]2C(=O)Nc2cccc(-c3ccccc3Cl)c2F)c2cc(C)sc12 [Compound 323, (2S,4R)-1-(2-(3-Acetyl-5-methyl-1H-thieno[3,2-c]pyrazol-1-yl)acetyl)-N-(2′-chloro-2-fluoro-[1,1′-biphenyl]-3-yl)-4-fluoropyrrolidine-2-carboxamide]
< 1 | CC(=O)c1cn(CC(=O)N2C[C@H](F)C[C@H]2C(=O)Nc2cccc(-c3ccccc3Cl)c2F)c2cc(Cl)ccc12 [Compound 328, (2S,4R)-1-(2-(3-acetyl-6-chloro-1H-indol-1-yl)acetyl)-N-(2′-chloro-2-fluoro-[1,1′-biphenyl]-3-yl)-4-fluoropyrrolidine-2-carboxamide]
< 1 | NC(=O)c1nn(CC(=O)N2C[C@H](O)C[C@H]2C(=O)Nc2cccc(-c3ccccc3Cl)c2F)c2ccccc12 [Compound 336, 1-(2-((2S,4R)-2-((2′-chloro-2-fluoro-[1,1′-biphenyl]-3-yl)carbamoyl)-4-hydroxypyrrolidin-1-yl)-2-oxoethyl)-1H-indazole-3-carboxamide]
< 1 | NC(=O)c1nn(CC(=O)N2C[C@@H](F)C[C@H]2C(=O)Nc2cccc(-c3ccccc3Cl)c2F)c2ccccc12 [Compound 352, 1-(2-((2S,4S)-2-((2′-chloro-2-fluoro-[1,1′-biphenyl]-3-yl)carbamoyl)-4-fluoropyrrolidin-1-yl)-2-oxoethyl)-1H-indazole-3-carboxamide]
< 1 | NC(=O)c1nn(CC(=O)N2CC(=O)C[C@H]2C(=O)Nc2cccc(-c3ccccc3Cl)c2F)c2ccccc12 [Compound 355, (S)-1-(2-(2-((2′-chloro-2-fluoro-[1,1′-biphenyl]-3-yl)carbamoyl)-4-oxopyrrolidin-1-yl)-2-oxoethyl)-1H-indazole-3-carboxamide]
< 1 | NC(=O)c1nn(CC(=O)N2C[C@H](F)C[C@H]2C(=O)Nc2nc3cccc(Cl)c3[nH]2)c2ccccc12 [Compound 360, 1-(2-((2S,4R)-2-((7-chloro-1H-benzo[d]imidazol-2-yl)carbamoyl)-4-fluoropyrrolidin-1-yl)-2-oxoethyl)-1H-indazole-3-carboxamide]
< 1 | CC(=O)c1nn(CC(=O)N2C[C@H](F)C[C@H]2C(=O)Nc2cccc(-c3ccccc3Cl)c2F)c2cc(C(=O)O)sc12 [Compound 363]
< 1 | CC(=O)c1nc(CC(=O)N2C[C@H](F)C[C@H]2C(=O)Nc2cccc(-c3ccccc3Cl)c2F)n2ccccc12 [Compound 372, (2S,4R)-1-(2-(1-Acetylimidazo[1,5-a]pyridin-3-yl)acetyl)-N-(2′-chloro-2-fluoro-[1,1′-biphenyl]-3-yl)-4-fluoropyrrolidine-2-carboxamide]
< 1 | NC(=O)c1nn(CC(=O)N2CC[C@@H](O)[C@H]2C(=O)Nc2cccc(-c3ccccc3Cl)c2F)c2ccccc12 [Compound 374]
< 1 | CC(=O)c1nn(CC(=O)N2C[C@H](F)C[C@H]2C(=O)Nc2cccc(Br)n2)c2ccccc12 [Compound 388, (2S,4R)-1-(2-(3-acetyl-1H-indazol-1-yl)acetyl)-N-(6-bromopyridin-2-yl)-4-fluoropyrrolidine-2-carboxamide]
